In PubChem BioAssay (NCI):
Several values for one entry are separate records, joined by “and”; a condition that tells them apart may be missing. Equal values may be shown once.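 Five compound concentrations were applied to cells in 96-well plates for 48 hours; endpoints were derived by simple linear interpolation of the resulting dose-response curve. Definition used: TGI = concentration required for complete inhibition of growth.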

Key:
Assay in all cases: NCI tumour cell line growth inhibition, 48 h
ACHN renal = test system: ACHN renal
MALME-3M melanoma = test system: MALME-3M melanoma
OVCAR-8 ovarian = test system: OVCAR-8 ovarian
KM12 colon = test system: KM12 colon
K-562 leukemia = test system: K-562 leukemia
RXF 393 renal = test system: RXF 393 renal
EKVX NSCLC = test system: EKVX NSCLC
SR leukemia = test system: SR leukemia
UACC-257 melanoma = test system: UACC-257 melanoma
COLO 205 colon = test system: COLO 205 colon
HCT-116 colon = test system: HCT-116 colon
NCI/ADR-RES ovarian = test system: NCI/ADR-RES ovarian
DU-145 prostate = test system: DU-145 prostate
MDA-N = test system: MDA-N
SK-MEL-28 melanoma = test system: SK-MEL-28 melanoma

Row | SMILES | TGI (ACHN renal) | TGI (MALME-3M melanoma) | TGI (OVCAR-8 ovarian) [µM] | TGI (KM12 colon) [µM] | TGI (K-562 leukemia) | TGI (RXF 393 renal) [µM] | TGI (EKVX NSCLC) [µM] | TGI (SR leukemia) | TGI (UACC-257 melanoma) [µM] | TGI (COLO 205 colon) [µM] | TGI (HCT-116 colon) | TGI (NCI/ADR-RES ovarian) [µM] | TGI (DU-145 prostate) [µM] | TGI (MDA-N) [µM] | TGI (SK-MEL-28 melanoma) [µM]
1 | COc1cc(C(O)C(=O)c2cnc3cc([N+](=O)[O-])ccc3n2)ccc1O (centres undefined) | > 100 µM | > 100 µM | > 100 | > 100 | > 100 µM | > 100 | > 100 | > 100 µM | > 100 | > 100 | > 100 µM |  |  |  | 
2 | O=C1C=C(O)c2c(O)ccc(O)c2C1=O | > 100 µM | > 100 µM | > 100 | > 100 | > 100 µM | > 100 |  |  | > 100 | > 100 | > 100 µM | > 100 | > 100 | > 100 | > 100
3 | Cn1cnc(SC2=C3C(=O)C=C4S[C@H]5C[C@]42c2c(c(O)c4c6c2=[N+]3CCC=6C=N4)N5)c1CC(N)C(=O)O (some centres undefined) | 29.5 µM | 12.4 µM | 27.2 | 37.8 | 41.3 µM | 43.8 | 32.9 | 48.8 µM | 29.9 | 4.44 | 13.3 µM |  |  |  | 31.9
4 | COc1cc([C@@H]2c3cc4c(cc3[C@@H](c3c(O)cc(O)c5c3O[C@H](c3ccc(O)c(O)c3)[C@H](OC(=O)c3cc(O)c(O)c(O)c3)C5)[C@H]3COC(=O)[C@H]23)OCO4)cc(OC)c1O | > 100 µM | > 100 µM | > 100 | > 100 |  | > 100 | > 100 |  | > 100 | 84.1 | > 100 µM | > 100 | > 100 | > 100 | > 100
5 | COc1cc2c(c(OC)c1OC)-c1ccc(SC)c(=O)cc1[C@@H](NC(=O)c1ccc([N+](=O)[O-])cc1)CC2 | 25 µM and > 100 µM | 25 µM and > 100 µM |  |  | 25 µM and > 100 µM |  | 25 | 25 µM and > 100 µM |  | 25 | 7.28 µM and 11.7 µM |  |  |  | > 100
6 | Cn1c(COC(=O)NC2CCCCC2)c(COC(=O)NC2CCCCC2)c2ccc3cc(C=O)ccc3c21 | > 100 µM | > 100 µM | > 100 | > 100 | > 100 µM | > 100 | > 100 |  | > 100 | > 100 | > 100 µM | > 100 | > 100 | > 100 | 
7 | CN(C(=O)C12C3C4C1C1C2C3C41C(O)C(C)(C)C)C(C)(C)C (centres undefined) | > 100 µM | > 100 µM | > 100 | > 100 | > 100 µM |  | > 100 |  | > 100 | > 100 | > 100 µM |  |  |  | > 100
8 | CCOc1ccc(NCC2CC/C(=C\c3ccc(Cl)cc3)C2=O)cc1 (centres undefined) | > 60.3 µM | > 87.5 µM | > 52.8 | > 44 | 34.9 µM | > 64.6 | > 73.8 | > 50.4 µM | > 56.1 | > 52.5 | > 62.9 µM |  |  |  | > 100
9 | C[N+](C)(C)CC(CC(=O)[O-])C1CC1 (centres undefined) | > 100 µM | > 100 µM | > 100 | > 100 | > 100 µM | > 100 | > 100 |  | > 100 | > 100 |  |  |  |  | > 100
10 | COc1ccc(N=Nc2c(-c3ccccc3)nn(C(=O)CC(=O)Nc3ccccc3Cl)c2-c2ccccc2)cc1 | > 100 µM | > 100 µM | > 100 | > 100 | > 100 µM | > 100 | > 100 | 11.3 µM | > 100 | > 100 | > 100 µM |  |  |  | > 100
11 | CC(=O)OCCOCNC(=S)N/N=C(\C)c1cccs1 | > 100 µM | > 100 µM | > 100 | > 100 | > 100 µM | > 100 | > 100 | > 100 µM | > 100 | > 100 | > 100 µM |  |  |  | > 100
12 | c1ccc2c(c1)Sc1ccccc1N2C1CN2CCC1CC2 (centres undefined) | 36.1 µM | 30.5 µM | 32.5 | 33.9 | 29.5 µM |  | 27.7 |  | 31.8 | 34.5 | 28.8 µM |  |  |  | 32.1
13 | COc1cc(O)cc(O)c1C(=O)CC(Cl)(Cl)Cl | > 100 µM | > 100 µM | > 100 | > 100 | > 100 µM | > 100 | > 100 | > 100 µM | > 100 | > 100 | > 100 µM | > 100 | > 100 |  | > 100
14 | CC1=NN(C(=O)Cc2ccccc2)C(=O)/C1=C\c1ccccc1O | > 100 µM | > 100 µM | > 100 | > 100 | > 100 µM | > 100 | > 100 |  | > 100 | > 100 | > 100 µM |  |  |  | > 100
15 | CC(=O)c1ccc2c3c1O[C@H]1c4[nH]c5ccccc5c4C[C@@]4(O)[C@@H](C2)N(CC2CC2)CC[C@]314 | 30.9 µM | 36.3 µM | 27.8 | 37.6 | 41.3 µM | 27.3 | 45.3 |  | 30.7 | 30.8 | 28.9 µM | 26.6 | 39.5 | 34.6 | > 100
16 | Cc1ccc2c(=O)cc(Cc3csc4ccccc34)[nH]c2n1 |  | 62.1 µM | > 100 | > 100 | > 100 µM | > 100 | > 100 |  | > 100 | > 100 | > 100 µM | 52.4 | > 100 | > 100 | > 100
17 | N#Cc1ccc2[nH]c3c(c2c1)CC(=O)Nc1ccccc1-3 | > 100 µM |  | > 100 |  | > 100 µM | > 100 | > 100 | > 100 µM | > 100 | > 100 | > 100 µM | > 100 |  |  | > 100
